# EP4818176A1, “TETRACYCLIC DERIVATIVE INHIBITOR, AND PREPARATION METHOD AND USE THEREFOR” (Shanghai Hansoh Biomedical Co., Ltd., priority 2023, dated 2025)
# Where two headings read alike, the source gives them in different places.
# Experiments:
# [1] = target: T1, PRMT5/MEP50-MTA protein complex (Homo sapiens, UniProt O14744); assay: Thermal shift assay: thermal stability (melting temperature) of PRMT5/MEP50-MTA protein complex; assay type: binding; details: final compound concentration 8 µM; 2 µM PRMT5/MEP50, 2 µM MTA; Tm minus Tm of DMSO vehicle control
# T1 construct: purchased Viva Biotech
# Description: Test Example 1: Determination of the ability of the compounds of the present invention to improve the thermal stability (melting temperature) of the PRMT5/MEP50-MTA protein complex.
# 1 Experimental objective: The objective of this test example is to determine the ability of the compound to improve the thermal stability of the PRMT5/MEP50-MTA protein complex, resulting in an increase in the protein melting temperature. 2 Experimental instruments: Quantitative PCR instrument (Quantstudio6 Flex) was purchased from Life Technologies; pipettes were purchased from Eppendorf or Rainin. 3 Experimental reagents and consumables: PRMT5/MEP50 protein was prepared by Viva Biotech; HEPES was purchased from Thermo Fisher Scientific (Cat. No. 15630080); DTT was purchased from Sigma (Cat. No. 43816-10ml); sodium chloride was purchased from Invitrogen (Cat. No. AM9760G); Protein Thermal Shift™ Dye Kit was purchased from Thermo Fisher Scientific (Cat. No. 4461146); methylthioadenosine (MTA) was purchased from Sigma (Cat. No. D5011). 4 Experimental method: In this experiment, the thermal shift method was used to measure the change in the melting temperature (Tm) of the PRMT5/MEP50-MTA protein complex before and after compound binding, thereby characterising the ability of the compound to improve the thermal stability of the PRMT5/MEP50-MTA protein complex. A solution containing 50 mM HEPES, 10 mM DTT, 2 µM MTA, SYPRO Orange and 250 mM NaCl was prepared as the experimental buffer. Human PRMT5/MEP50 protein was added to a final concentration of 2 µM, and the mixture was incubated at room temperature for 30 minutes. The above reaction mixture was aliquoted into 8-strip PCR tubes at 19.5 µL per tube. Then 0.5 µL of test compound or DMSO was added to each tube, providing a total reaction volume of 20 µL and a final compound concentration of 8 µM. 2.5% DMSO was set as the vehicle control. After incubation at room temperature for 10 minutes, the PCR tubes were placed in a PCR instrument, and the melt curve function was selected to measure the melting temperature of the PRMT5/MEP50-MTA protein complex in different treatment groups (heated from 25°C to 95°C, 0.03°C/s). 5 Experimental data processing method: The experimental data files from the PCR instrument were imported into the thermal shift software to obtain the melting temperature (Tm) for each treatment group.
# [2] = system: HCT116 wild-type cells; assay: Cell proliferation inhibition (CellTiter-Glo), HCT116 wild-type cells; assay type: cell-based; details: Homo sapiens, HCT-116, read-out: HCT116 IC50
# Description: (§1) Test Example 2: Determination of the inhibitory effect of the compounds of the present invention on the proliferation activity of HCT116 and MTAP Knockout HCT116 cells.
# (§2) 1 Experimental objective: The objective of this test example is to determine the inhibitory effect of the compound on the proliferation activity of HCT116 wild-type and HCT116 MTAP knockout cells. 2 Experimental instruments: Centrifuge (Eppendorf 5810R); microplate reader (BioTek Synergy H1 or PerkinElmer Envision); pipette (Eppendorf or Rainin). 3 Experimental reagents: HCT116 and MTAP Knockout HCT116 cells were purchased from Nanjing Cobioer; Cell Titer-Glo was purchased from Promega (Cat. No. G7573); McCoy'5A was purchased from Gibco (Cat. No. 12330031); FBS was purchased from Gibco (Cat. No. 10091148); PBS was purchased from Gibco (Cat. No. 10010023); trypsin was purchased from Gibco (Cat. No. 25200056); cell culture plates were purchased from Corning (Cat. No. 3610). 4 Experimental method: HCT116 and MTAP Knockout HCT116 cells were cultured in McCoy'5A medium containing 10% FBS until an appropriate cell density was reached. The cells were then collected and adjusted to a suitable concentration using complete medium. The cell suspension was seeded into a 96-well plate at 90 µL per well and allowed to adhere overnight in a 37°C, 5% CO2 incubator. Compound solutions of various concentrations were prepared using DMSO and culture medium, with a vehicle control set. The compound solutions were added to the 96-well plate at 10 µL per well, and the plate was incubated in a 37°C, 5% CO2 incubator for an additional 72-240 hours. After incubation, CellTiter-Glo solution was added, and the mixture was mixed uniformly by shaking, followed by incubation in the dark for 10 to 30 minutes. Luminescence was measured using a Synergy H1 or Envision microplate reader. 5 Experimental data processing method: The inhibition rate was calculated using the luminescence signal values, and the concentrations along with the inhibition rates were subjected to non-linear regression curve fitting using Graphpad Prism software to obtain the IC50 values.
# [3] = system: MTAP Knockout HCT116 cells; assay: Cell proliferation inhibition (CellTiter-Glo), HCT116 MTAP knockout cells; assay type: cell-based; details: for Selectivity: HCT116 IC50 versus MTAP Knockout HCT116 IC50; for IC50: Homo sapiens, HCT-116, read-out: MTAP Knockout HCT116 IC50
# Description: as §1, §2
# [4] = Pharmacokinetics in rats (plasma) after oral administration; assay type: in vivo; details: rat, po, SD rats, p.o. 5 mg/kg; for Cmax: read-out: Cmax; for MRT inf: read-out: MRT0-∞; for Tmax: read-out: tmax
# Description: Test Example 4: Determination of the pharmacokinetics of the compounds of the present invention in rats (plasma) after oral administration.
# 1 Study objective: SD rats were used as test animals to study the pharmacokinetic behaviour of the following example compounds in rats (plasma) after oral administration at a dose of 5 mg/kg. 2 Test scheme • 2.1 Test drugs: Vehicle formula: 0.5% CMC-Na (1% Tween 80); the examples of the present invention, made in house. • 2.2 Test animals: 3 SD rats per group, male, purchased from Shanghai Bikai Keyi Biotechnology Co., Ltd., with animal license number (SCXK (Shanghai) 2018-0006, No.20180006037467). • 2.3 Administration: 3 SD rats per group, male, were fasted overnight and then respectively administered PO at a dose of 5 mg/kg and a volume of 10 mL/kg. • 2.4 Sample collection: 0.2 mL of blood was collected from the jugular vein of rats before administration and at 0, 0.25, 0.5, 1, 2, 4, 6, 8 and 24 h after administration, and placed in EDTA-K2test tubes, and the test tubes were centrifuged at 6,000 rpm at 4°C for 6 min to separate the plasma, which was stored at -80°C. The animals were fed 4 h after administration. • 2.5 Sample treatment • 1) 160 uL of acetonitrile was added to 40 uL of plasma sample for precipitation, and after mixing, the mixture was centrifuged at 3,500 × g for 5-20 minutes. • 2) 100 uL of the treated supernatant solution was taken for LC/MS/MS analysis to determine the concentration of the test compounds. • 2.6 Liquid phase analysis • Liquid phase conditions: Shimadzu LC-20AD pump;mass spectrometry conditions: AB Sciex API 4000 mass spectrometer • Chromatographic column: Phenomenex Gemiu 5 um C18 50 × 4.6 mm • Mobile phase: solution A: 0.1% formic acid in water, solution B: methanol • Flow rate: 1.0 mL/min, elution time: 0-4.0 min, with eluents as follows:
# Experimental results and analysis: The main pharmacokinetic parameters were calculated using WinNonlin 8.2.
# T1 sequence (O14744 whole entry): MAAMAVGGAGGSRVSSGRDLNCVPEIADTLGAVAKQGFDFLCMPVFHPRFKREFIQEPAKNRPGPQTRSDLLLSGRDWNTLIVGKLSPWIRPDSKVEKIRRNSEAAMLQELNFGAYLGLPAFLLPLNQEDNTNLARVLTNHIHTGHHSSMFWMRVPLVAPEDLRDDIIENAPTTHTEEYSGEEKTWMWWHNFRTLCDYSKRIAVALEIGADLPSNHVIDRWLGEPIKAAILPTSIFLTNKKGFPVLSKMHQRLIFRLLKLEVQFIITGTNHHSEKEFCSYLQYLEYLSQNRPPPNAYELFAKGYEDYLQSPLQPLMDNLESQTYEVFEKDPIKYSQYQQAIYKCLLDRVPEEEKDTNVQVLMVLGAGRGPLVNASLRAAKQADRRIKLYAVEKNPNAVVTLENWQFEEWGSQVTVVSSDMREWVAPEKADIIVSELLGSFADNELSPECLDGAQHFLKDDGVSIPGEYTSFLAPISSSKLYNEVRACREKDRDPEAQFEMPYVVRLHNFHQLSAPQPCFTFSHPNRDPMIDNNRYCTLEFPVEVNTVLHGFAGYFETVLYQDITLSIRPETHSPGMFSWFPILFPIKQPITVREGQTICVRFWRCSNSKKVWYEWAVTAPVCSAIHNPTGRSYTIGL
# T1 sequence (Q9BQA1 whole entry partner): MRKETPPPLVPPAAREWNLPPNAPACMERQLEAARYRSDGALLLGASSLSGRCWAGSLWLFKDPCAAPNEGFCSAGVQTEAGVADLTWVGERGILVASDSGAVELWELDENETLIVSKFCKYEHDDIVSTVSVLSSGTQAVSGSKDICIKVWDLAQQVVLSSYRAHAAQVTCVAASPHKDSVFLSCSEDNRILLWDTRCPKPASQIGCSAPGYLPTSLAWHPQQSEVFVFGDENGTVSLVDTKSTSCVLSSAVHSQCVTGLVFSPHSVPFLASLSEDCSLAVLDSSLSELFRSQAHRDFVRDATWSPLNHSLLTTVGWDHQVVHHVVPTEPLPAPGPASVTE
structure (smiles),measurement,setting,value
"C[C@@H]1CCN([C@@H]2COCc3nc(C(F)(F)F)ccc32)C(=O)c2cc3c(cc2CO1)nc(N)c1cncn13 [Example 15-P1, (R)-4-amino-9-methyl-12-((S)-2-(trifluoromethyl)-5,8-dihydro-6H-pyrano[3,4-b]pyridin-5-yl)-9,10,11,12-tetrahydroimidazo[1,5-a][1,5]oxazolo[8,7-g]quinoxalin-13(7H)-one and (S)-4-amino-9-methyl-12-((R)-2-(trifluoromethyl)-5,8-dihydro-6H-pyrano[3,4-b]pyridin-5-yl)-9,10,11,12-tetrahydroimidazo[1,5-a][1,5]oxazolo[8,7-g]quinoxalin-13(7H)-one]",ΔTm at 8 µM,[1],10.1 °C
"Nc1nc2cc3c(cc2n2cncc12)C(=O)N(C1COCc2nc(C(F)(F)F)ccc21)CCCCOC3 (stereo not shown) [Example 48, 4-Amino-13-(2-(trifluoromethyl)-5,8-dihydro-6H-pyrano[3,4-b]pyridin-5-yl)-10,11,12,13-tetrahydro-7H-imidazo [1,5-a] [1,6] oxazino [3,4-g] quinoxalin-14(9H)-one]",ΔTm at 8 µM,[1],10.9 °C
"Cc1nc(CN2CC/C=C\c3cc4nc(N)c5cncn5c4cc3C2=O)ccc1C(F)(F)F [Example 688, (Z)-4-Amino-11-((6-methyl-5-(trifluoromethyl)pyridin-2-yl)methyl)-10,11-dihydroazo[4,3-g]imidazo[1,5-a]quinoxalin-12(9H)-one]",ΔTm at 8 µM,[1],11.6 °C
"CC1CCN(Cc2ccc(C(F)(F)F)cn2)C(=O)c2cc3c(cc2CO1)nc(N)c1cncn13 (stereo not shown) [Example 177, 4-Amino-9-methyl-12-((5-(trifluoromethyl)pyridin-2-yl)methyl)-9,10,11,12-tetrahydroimidazo[1,5-a][1,5]oxazolo[8,7-g]quinoxalin-13(7H)-one]",IC50,[2],1510 nM
same,Selectivity,[3],84
same,IC50,[3],18 nM
same,ΔTm at 8 µM,[1],11.2 °C
"Nc1nc2cc3c(cc2c2c1COC2)C(=O)N(Cc1ccc(-c2c(F)cccc2F)cn1)CCCOC3 [Example 431, 4-Amino-12-(5-(2,6-difluorophenyl)pyridin-2-yl)methyl-3,7,9,10,11,12-hexahydrofuro[3,4-c][1,5]oxazolino[7,8-g]quinolin-13(1H)-one]",IC50,[2],200 nM
same,Selectivity,[3],61
same,IC50,[3],3.3 nM
same,ΔTm at 8 µM,[1],12.3 °C
"Cn1ncc2c(N)nc3cc4c(cc3c21)C(=O)N(Cc1ccc(C(F)(F)F)cn1)CCCOC4 [Example 190, 4-Amino-1-methyl-12-((5-(trifluoromethyl)pyridin-2-yl)methyl)-1,7,9,10,11,12-hexahydro-13H-[1,5]oxazolo[7,8-g]pyrazolo[4,3-c]quinolin-13-one]",IC50,[2],763 nM
same,Selectivity,[3],123
same,IC50,[3],6.2 nM
same,ΔTm at 8 µM,[1],12.2 °C
"CC(c1ccc(C(F)(F)F)nc1)N1CCC/C=C\c2cc3nc(N)c4cncn4c3cc2C1=O (stereo not shown) [Example 415, (Z)-4-Amino-12-(1-(6-(trifluoromethyl)pyridin-3-yl)ethyl)-9,10,11,12-tetrahydro-13H-azo[4,3-g]imidazo[1,5-a]quinoxalin-13-one]",ΔTm at 8 µM,[1],10.3 °C
"CC(c1ccc(C(F)(F)F)cn1)N1CCC/C=C\c2cc3nc(N)c4cncn4c3cc2C1=O (racemic) [Example 352, (Z)-4-Amino-12-(1-(5-(trifluoromethyl)pyridin-2-yl)ethyl)-9,10,11,12-tetrahydro-13H-azo[4,3-g]imidazo[1,5-a]quinoxalin-13-one]",ΔTm at 8 µM,[1],11 °C
"Nc1nc2cc3c(cc2n2cncc12)C(=O)N([C@@H]1COCc2nc(C(F)(F)F)ccc21)CC/C=C\3 (single isomer, unassigned) [Example 311-P1]",AUC(0-inf),[4]; in vivo,1780 ng·h/mL
same,half-life,[4]; in vivo,108 min
same,Cmax,[4]; in vivo,330 ng/mL
same,MRT inf,[4]; in vivo,3.7 h
same,Tmax,[4]; in vivo,2.3 h
same,ΔTm at 8 µM,[1],10.9 °C
"Nc1nc2cc3c(cc2n2cncc12)C(=O)N(C1COCc2cc(C(F)(F)F)ccc21)CCC/C=C\3 (stereo not shown) [Example 167, (Z)-4-Amino-12-(7-trifluoromethylisochroman-4-yl)-9,10,11,12-tetrahydro-13H-azonino[4,3-g]imidazo[1,5-a]quinoxalin-13-one]",ΔTm at 8 µM,[1],12.3 °C
"Nc1nc2cc3c(cc2n2cncc12)C(=O)N(Cc1ccc(C(F)(F)F)nn1)CCC/C=C\3 [Example 391, (Z)-4-Amino-12-(6-(trifluoromethyl)pyridazin-3-yl)methyl-9,10,11,12-tetrahydro-13H-azonino[4,3-g]imidazo[1,5-a]quinoxalin-13-one]",ΔTm at 8 µM,[1],10.9 °C
"Nc1nc2cc3c(cc2n2cncc12)C(=O)N(C1COCc2nc(C(F)(F)F)ccc21)CCCCC3 (stereo not shown) [Example 159, 4-Amino-12-(2-(trifluoromethyl)-5,8-dihydro-6H-pyrano[3,4-b]pyridin-5-yl)-7,8,9,10,11,12-hexahydro-13H-azonino[4,3-g]imidazo[1,5-a]quinoxalin-13-one]",ΔTm at 8 µM,[1],10.5 °C
"CN1CCCN(Cc2ccc(C(F)(F)F)cn2)C(=O)c2cc3c(cc2C1)nc(N)c1cnn(C)c13 [Example 502, 4-Amino-1,8-dimethyl-12-((5-(trifluoromethyl)pyridin-2-yl)methyl)-7,8,9,10,11,12-hexahydro-[1,5]diazonino[7,8-g]pyrazolo[4,3-c]quinolin-13(1H)-one]",ΔTm at 8 µM,[1],10.6 °C
"Nc1nc2cc3c(cc2n2cncc12)C(=O)N(C1COCc2nc(C(F)(F)F)ccc21)CCC/C=C\3 (stereo not shown) [Example 158, (Z)-4-Amino-12-(2-(trifluoromethyl)-5,8-dihydro-6H-pyrano[3,4-b]pyridin-5-yl)-9,10,11,12-tetrahydro-13H-azonino[4,3-g]imidazo[1,5-a]quinoxalin-13-one]",AUC(0-inf),[4]; male,712 ng·h/mL
same,half-life,[4]; male,78 min
same,Cmax,[4]; male,287 ng/mL
same,MRT inf,[4]; male,2 h
same,Tmax,[4]; male,0.5 h
same,ΔTm at 8 µM,[1],11.3 °C
"C[C@@H]1CCCN(Cc2ccc(C(F)(F)F)cn2)C(=O)c2cc3c(cc2C1)nc(N)c1cncn13 [Example 514-P1, (R)-4-amino-8-methyl-12-((5-(trifluoromethyl)pyridin-2-yl)methyl)-7,8,9,10,11,12-hexahydro-13H-azo[4,3-g]imidazo[1,5-a]quinoxalin-13-one]",ΔTm at 8 µM,[1],11.3 °C
"Nc1nc2cc3c(cc2n2cncc12)C(=O)N(C1COCc2nc(C(F)(F)F)ccc21)CCCC/C=C\3 (single isomer, unassigned) [Example 62-P1]",AUC(0-inf),[4]; male,800 ng·h/mL
same,half-life,[4]; male,132 min
same,Cmax,[4]; male,201 ng/mL
same,MRT inf,[4]; male,3.8 h
same,Tmax,[4]; male,1 h
same,ΔTm at 8 µM,[1],10.8 °C
